This passage reports CC50 and EC50 results from US20230310481A1 (priority 2020, published 2023).

What all share (type): cell-based
A short description of data set [1]: Viability evaluation (MTS/PMS) of replicon RNA-transfected Huh7 cells, Example 2. As to conditions: human, highest tested concentration 50 µM. From the text:
Obtained values are expressed as percent inhibition of untreated RNA-transfected control condition.

Data set [2] deals with rat HEV replicon LAB350/luc. As to the kind of experiment: Antiviral activity against rat HEV replicon LAB350/luc in Huh7 cells (Gaussia luciferase). Conditions: Huh-7, 72 h, 3 days, 50% reduction in Luc signal, two experiments.
The subject of data set [3] is HEV Genotype 3 replicon Kernow-C1 p6/luc. The experiment in a line: Antiviral activity against HEV Genotype 3 replicon Kernow-C1 p6/luc in Huh7 cells (Gaussia luciferase). Conditions: Huh-7, 96 h, read-out: relative EC50.

Consider `CCOc1nc(N)nc2c1ncn2[C@@H]1O[C@](F)(COP(=O)(N[C@@H](C)C(=O)OC2CCCCC2)Oc2ccccc2)[C@@H](O)[C@@]1(C)O` (stereo partly shown) [Compound 2], for which the CC50 in data set [1] was > 50 µM. As to `CCOc1nc(N)nc2c1ncn2[C@@H]1O[C@](F)(COP(=O)(OCOC(=O)OC(C)C)OCOC(=O)OC(C)C)[C@@H](O)[C@@]1(C)F` [Compound 3], the CC50 in data set [1] was > 50 µM. With `CCOc1nc(N)nc2c1ncn2[C@@H]1O[C@]2(F)CO[P@@](=O)(NCC(=O)OC(C)C)O[C@H]2[C@@]1(C)F` [Compound 5], the EC50 was 0.046 µM in data set [2] and 0.022 µM in data set [3]. The CC50 in data set [1] was > 50 µM. Regarding `CCOc1nc(N)nc2c1ncn2[C@@H]1O[C@](F)(COP(=O)(OCOC(=O)OC(C)C)OCOC(=O)OC(C)C)[C@@H](O)[C@@]1(C)O` [Compound 6], the CC50 in data set [1] is > 50 µM. On the same count and under the same terms, the same measure for `CC(C)OC(=O)[C@H](C)N[P@](=O)(OC[C@@]1(F)O[C@@H](n2ccc(=O)[nH]c2=O)[C@](C)(O)[C@@H]1O)Oc1ccccc1` [Compound 7]: > 50 µM; for `CCOc1nc(N)nc2c1ncn2[C@@H]1O[C@]2(F)CO[P@@](=O)(N[C@H](C)C(=O)OC(C)C)O[C@H]2[C@@]1(C)F` [Compound 8]: > 50 µM. Regarding `CC(C)OC(=O)OCOP(=O)(OCOC(=O)OC(C)C)OC[C@@]1(F)O[C@@H](n2ccc(=O)[nH]c2=O)[C@](C)(O)[C@@H]1O` [Compound 9], the CC50 in data set [1] is > 50 µM. Regarding `CC(C)OC(=O)OCOP(=O)(OCOC(=O)OC(C)C)OC[C@@]1(F)O[C@@H](n2ccc(=O)[nH]c2=O)[C@](C)(F)[C@@H]1O` [Compound 11], the CC50 in data set [1] was > 50 µM.
